Experiment: RP, Waters ACQUITY UPLC BEH C18, 100 × 2.1 mm, 1.7 µm, 0.3 mL/min, estimated dead time 0.73 min; A: water + 0.1% formic acid, pH 3; B: methanol + 0.1% formic acid, pH 3; gradient (min/%B) 0/10 14/90 16/90 18/10
Conditions: stereoisomer not certain

Compound | LC retention time
O=C(NC(=O)c1c(F)cccc1F)Nc1ccc(Oc2ccc(C(F)(F)F)cc2Cl)cc1F [Flufenoxuron] | 13.5 min
CC12C=CC(=O)C=C1CCC1C2CCC2(C)C(=O)CCC12 (configuration not stated) [1.4-Androstadiene-3.17-dione (Boldione)] | 9.82 min
CCC1OC(=O)C(C)C(OC2CC(C)(OC)C(O)C(C)O2)C(C)C(OC2OC(C)CC(N(C)C)C2O)C(C)(O)CC(C)C(=O)C(C)C(O)C1(C)O (configuration not stated) [Erythromycin] | 9.41 min
Cc1ccccc1C(=O)Nc1cccc(OC(C)C)c1 [Mepronil] | 10.4 min
CCC(c1ccc(O)cc1)C(CC)c1ccc(O)cc1 (configuration not stated) [Hexestrol] | 11.3 min
CC(C)c1ncc([N+](=O)[O-])n1C [Ipronidazole (IPZ)] | 5.42 min
Clc1cccc(N2CCNCC2)c1 [mCCP] | 5.23 min
CC(C)(C)N(NC(=O)c1ccc(Cl)cc1)C(=O)c1ccccc1 [Halofenozide] | 9.91 min
CC(C)Oc1cccc(NC(=O)c2ccccc2C(F)(F)F)c1 [Flutolanil] | 10.5 min
Clc1ccccc1CN1CCc2sccc2C1 [Ticlopidine] | 12.1 min
Cc1cccc(Nc2ccccc2C(=O)O)c1C [Mefenamic acid] | 13.4 min
CNC(=O)ON=CC(C)(C)S(C)(=O)=O [Aldicarb sulfone] | 4.8 min
COC(=O)C1C2CCC(CC1OC(=O)c1ccccc1)N2 (configuration not stated) [Norcocaine] | 6.29 min
CC(C)(C)NCC(O)c1cc(Cl)c(N)c(Cl)c1 (configuration not stated) [Clenbuterol] | 5.15 min
CC(C)N1C(=O)N(c2ccccc2)CSC1=NC(C)(C)C [Buprofezin] | 13.1 min
CCOP(=S)(OCC)Oc1nc(Cl)n(C(C)C)n1 [Isazophos] | 10.8 min
CCNc1nc(NC(C)(C)C)nc(OC)n1 [Terbumeton] | 8.02 min
CC=C(C(=CC)c1ccc(O)cc1)c1ccc(O)cc1 [Dienestrol] | 11.1 min
Nc1nc(N)nc(NC2CC2)n1 [Cyromazine] | 1.45 min
Cn1c([N+](=O)[O-])cnc1COC(N)=O [Ronidazole] | 1.79 min
CCCCC1C(=O)N(c2ccccc2)N(c2ccccc2)C1=O [Phenylbutazone] | 11.6 min
COC(=O)c1sccc1S(=O)(=O)NC(=O)Nc1nc(C)nc(OC)n1 [Thifensulfuron methyl] | 5.04 min

Compound | LC retention time
O=C(O)c1ccccc1C(=O)Nc1cccc2ccccc12 [Naptalam] | 6.59 min
COC(=O)c1c(Cl)nn(C)c1S(=O)(=O)NC(=O)Nc1nc(OC)cc(OC)n1 [Halosulfuron methyl] | 7.16 min
CC(=O)Nc1c(C)n(C)n(-c2ccccc2)c1=O [4-Acetylamino-Antipyrine] | 3.87 min
CS(=O)(=O)c1ccc(C(=O)C2C(=O)CCCC2=O)c([N+](=O)[O-])c1 [Mesotrione] | 5.53 min
CCC(=O)OCC(=O)C1(OC(=O)CC)C(C)CC2C3CCC4=CC(=O)C=CC4(C)C3(Cl)C(O)CC21C (configuration not stated) [Beclometasone dipropionate] | 12.3 min
CCc1nc(N)nc(N)c1-c1ccc(Cl)cc1 [Pyrimethamine] | 7.2 min
O=C(Nc1ccccc1)Nc1cnns1 [Thidiazuron] | 7.36 min
CNC(=O)Oc1cc(C)cc(C(C)C)c1 [Promecarb] | 10.3 min
O=C(O)c1ccccc1O [Salicylic acid] | 4.4 min
NC(C(=O)NC1C(=O)N2C(C(=O)O)=C(Cl)CSC12)c1ccccc1 (configuration not stated) [Cefaclor] | 4.02 min
COP(=S)(OC)SCN1C(=O)c2ccccc2C1=O [Phosmet] | 9.52 min
Cc1cccc2sc3nncn3c12 [Tricyclazole] | 6.05 min
CN(C)C1C(=O)C(C(N)=O)=C(O)C2(O)C(=O)C3=C(O)c4c(O)cccc4C(C)(O)C3CC12 (configuration not stated) [Tetracycline] | 4.37 min
CCCC1CC(C(=O)NC(C(C)Cl)C2OC(SC)C(O)C(O)C2O)N(C)C1 (configuration not stated) [Clindamycin] | 7.04 min
CCNc1nc(NCC)[nH]c(=O)n1 [2-hydroxysimazine] | 3.33 min
CCCCc1c(C)nc(NCC)nc1OS(=O)(=O)N(C)C [Bupirimate] | 11.2 min
[O-][n+]1nc(-n2ccnc2)nc2ccc(Cl)cc21 [Triazoxide] | 8.54 min
O=C(O)c1cn(-c2ccc(F)cc2)c2cc(N3CCNCC3)c(F)cc2c1=O [Sarafloxacin] | 5.12 min
CC(C)c1c(C(=O)Nc2ccccc2)c(-c2ccccc2)c(-c2ccc(F)cc2)n1CCC(O)CC(O)CC(=O)O (configuration not stated) [Atorvastatin] | 12 min
CC(C)NCC(O)COc1cccc2[nH]c3ccccc3c12 (configuration not stated) [Carazolol] | 6.24 min
COc1cnc(NS(=O)(=O)c2ccc(N)cc2)nc1 [Sulfameter] | 3.2 min
CCCCCc1cc(O)c2c(c1)OC(C)(C)C1CC=C(C(=O)O)CC21 (configuration not stated) [THC-COOH] | 13.9 min

Compound | LC retention time
CCS(=O)CCSP(=O)(OC)OC (configuration not stated) [Oxydemeton-methyl] | 3.15 min
COP(=S)(OC)SCn1nnc2ccccc2c1=O [Azinphos-methyl] | 10.1 min
c1ccc(Nc2ccccc2)cc1 [Diphenylamine] | 10.5 min
CN1CCN(c2c(F)cc3c(=O)c(C(=O)O)cn4c3c2OCN4C)CC1 [Marbofloxacin] | 2.84 min
Cc1c(NC=O)c(=O)n(-c2ccccc2)n1C [4-formylamino-Antipyrine] | 3.78 min
CON=C(C(=O)NC1C(=O)N2C(C(=O)O)=C(COC(N)=O)CSC12)c1ccco1 (configuration not stated) [Cefuroxime] | 9.51 min
CC(CN1c2ccccc2Sc2ccccc21)N(C)C (configuration not stated) [Promethazine] | 9.06 min
CCOCCOC(=O)C(C)Oc1ccc(Oc2ncc(C(F)(F)F)cc2Cl)cc1 (configuration not stated) [Haloxyfop-2-ethoxyethyl] | 13.1 min
O=C(NC(=O)c1ccccc1Cl)Nc1ccc(OC(F)(F)F)cc1 [Triflumuron] | 12 min
O=C(Nc1ccccc1-c1ccc(Cl)cc1)c1cccnc1Cl [Boscalid] | 10.7 min
CS(=O)(=O)c1ccc(C(O)C(CO)NC(=O)C(Cl)Cl)cc1 (configuration not stated) [Thiamphenicol] | 3.6 min
CCCCC1=NC2(CCCC2)C(=O)N1Cc1ccc(-c2ccccc2-c2nn[nH]n2)cc1 [Irbesartan] | 10.4 min
COc1cc(OC)nc(NC(=O)NS(=O)(=O)N(C)S(C)(=O)=O)n1 [Amidosulfuron] | 4.59 min
Nc1ccc(Cl)c(Cl)c1 [3.4-dichloroaniline] | 7.98 min
CCOP(=S)(OCC)Oc1cc(C)nc(C(C)C)n1 [Diazinon] | 12.5 min
COc1cc2c(c3oc(=O)c4c(c13)CCC4=O)C1C=COC1O2 (configuration not stated) [Aflatoxin B1] | 7.97 min
CCOC(=O)NCCOc1ccc(Oc2ccccc2)cc1 [Fenoxycarb] | 12.4 min
CCn1cc(C(=O)O)c(=O)c2ccc(C)nc21 [Nalidixic acid] | 7.99 min
CCOC(=O)C(CCc1ccccc1)NC(C)C(=O)N1CCCC1C(=O)O (configuration not stated) [Enalapril] | 7.86 min
CCCN(CCC)C(=O)SCc1ccccc1 [Prosulfocarb] | 12.6 min
CCOc1cc(C(C)(C)C)ccc1C1COC(c2c(F)cccc2F)=N1 (configuration not stated) [Etoxazole] | 13.5 min
O=C1CN=C(c2ccccc2)c2cc(Cl)ccc2N1 [Nordiazepam] | 10.5 min

Compound | LC retention time
CCOC(=O)c1cn2nc(OP(=S)(OCC)OCC)cc2nc1C [Pyrazophos] | 11.9 min
CCCS(=O)(=O)c1ccc2nc(NC(=O)OC)[nH]c2c1 [Albendazole sulfone] | 6.16 min
CCCCCc1cc(O)c2c(c1)OC(C)(C)C1CCC(C)=CC21 (configuration not stated) [THC] | 15.2 min
CC(C)(C)C(O)C(=Cc1ccc(Cl)cc1Cl)n1cncn1 (configuration not stated) [Diniconazole] | 12.2 min
CCOP(=S)(OCC)Oc1nc(Cl)c(Cl)cc1Cl [Chloropyrifos] | 14.1 min
CC(C)NCC(O)c1cc(Cl)c(N)c(Cl)c1 (configuration not stated) [Clenproperol] | 4.05 min
Cc1ncc([N+](=O)[O-])n1CCCO [Ternidazole] | 2.89 min
CC(=O)OCC12CC(OC(=O)CC(C)C)C(C)=CC1OC1C(O)C(OC(C)=O)C2(C)C12CO2 (configuration not stated) [T2 Toxin] | 9.98 min
Cc1ncc([N+](=O)[O-])n1C [Dimetridazole] | 2.68 min
Cc1nnc(-c2ccccc2)c(=O)n1N [Metamitron] | 4.51 min
COP(=S)(OC)Oc1c(Cl)cc(C)cc1Cl [Tolclofos-methyl] | 12.1 min
Cc1ccc(N=CN(C)C=Nc2ccc(C)cc2C)c(C)c1 [Amitraz] | 13.9 min
Cc1cccc(C)c1N(C(=O)CCl)C1CCOC1=O (configuration not stated) [Ofurace] | 7.69 min
Nc1ccc(S(=O)(=O)Nc2nccs2)cc1 [Sulfathiazole] | 2.26 min
COc1nc(C)nc(NC(=O)NS(=O)(=O)c2ccccc2OCCCl)n1 [Triasulfuron] | 6.67 min
O=C1CN(N=Cc2ccc([N+](=O)[O-])o2)C(=O)N1 [Nitrofurantoin] | 2.83 min
CNC(=O)Oc1cc(C)c(S(C)(=O)=O)c(C)c1 [Methiocarb sulfone] | 4.46 min
C=C(C)C1(O)OC(=O)C=C1OC (configuration not stated) [Penicillic acid] | 3.78 min
COC(=O)c1ccccc1CS(=O)(=O)NC(=O)Nc1nc(OC)cc(OC)n1 [Bensulfuron methyl] | 9.29 min
CN(C)c1ccc(C(c2ccccc2)c2ccc(N(C)C)cc2)cc1 [Leucomalachite green] | 10.4 min
CC1=CC2OC3C(O)CC(C)(C34CO4)C2(CO)C(O)C1=O (configuration not stated) [Deoxynivalenol] | 2.83 min

— the RepoRT retention time repository (doi:10.1016/j.scitotenv.2015.08.078)
